Target: Histone deacetylase (Eimeria tenella)
Assay: Tested for Histone deacetylase enzyme inhibition assay using Eimeria tenella extract

Compound | IC50
CCC(=O)CCCCC[C@@H]1NC(=O)[C@H]2CCCCN2C(=O)[C@H]([C@@H](C)CC)NC(=O)[C@H](c2cn(OC)c3ccccc3c2=O)NC1=O | 3.8 nM
CCC(=O)CCCCC[C@@H]1NC(=O)[C@H]2CCCCN2C(=O)[C@H]([C@@H](C)CC)NC(=O)[C@H](c2cn(CC)c3ccccc3c2=O)NC1=O | 11 nM
CCC(=O)CCCCC[C@@H]1NC(=O)[C@H]2CCCCN2C(=O)[C@H]([C@@H](C)CC)NC(=O)[C@H](c2cn(C)c3ccccc3c2=O)NC1=O | 9 nM
CCCn1cc([C@@H]2NC(=O)[C@H](CCCCCC(=O)CC)NC(=O)[C@H]3CCCCN3C(=O)[C@H]([C@@H](C)CC)NC2=O)c(=O)c2ccccc21 | 28 nM
